Experimental data: ChEMBL document CHEMBL4507268 (2021); call rule not given here

Key:
[1] = target: T1, Serine/threonine-protein kinase Nek2 (Homo sapiens) (UniProt P51955); conditions: Compound concentration 1000.0 nM
T1 sequence (whole entry): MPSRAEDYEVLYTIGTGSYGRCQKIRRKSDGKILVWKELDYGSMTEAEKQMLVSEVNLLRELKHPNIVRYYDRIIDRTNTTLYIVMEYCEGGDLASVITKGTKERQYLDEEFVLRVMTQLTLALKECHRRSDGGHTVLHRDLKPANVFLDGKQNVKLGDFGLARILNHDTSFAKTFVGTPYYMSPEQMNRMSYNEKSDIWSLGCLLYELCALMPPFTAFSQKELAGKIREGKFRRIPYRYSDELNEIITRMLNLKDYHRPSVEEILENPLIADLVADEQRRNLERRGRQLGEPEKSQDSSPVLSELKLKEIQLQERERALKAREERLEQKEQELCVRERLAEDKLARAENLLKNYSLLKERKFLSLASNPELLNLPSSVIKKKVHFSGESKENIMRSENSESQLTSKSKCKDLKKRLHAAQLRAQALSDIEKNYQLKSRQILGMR

[2] = test system: Phosphatidylinositol 4,5-bisphosphate 3-kinase catalytic subunit alpha isoform (Homo sapiens), P42336 [H1047L]; conditions: Compound concentration 1000.0 nM
[3] = target: Atypical kinase COQ8B, mitochondrial (Homo sapiens) (UniProt Q96D53); conditions: Compound concentration 1000.0 nM
[4] = target: T2, Bone morphogenetic protein receptor type-2 (Homo sapiens) (UniProt Q13873); conditions: Compound concentration 1000.0 nM
T2 sequence (whole entry): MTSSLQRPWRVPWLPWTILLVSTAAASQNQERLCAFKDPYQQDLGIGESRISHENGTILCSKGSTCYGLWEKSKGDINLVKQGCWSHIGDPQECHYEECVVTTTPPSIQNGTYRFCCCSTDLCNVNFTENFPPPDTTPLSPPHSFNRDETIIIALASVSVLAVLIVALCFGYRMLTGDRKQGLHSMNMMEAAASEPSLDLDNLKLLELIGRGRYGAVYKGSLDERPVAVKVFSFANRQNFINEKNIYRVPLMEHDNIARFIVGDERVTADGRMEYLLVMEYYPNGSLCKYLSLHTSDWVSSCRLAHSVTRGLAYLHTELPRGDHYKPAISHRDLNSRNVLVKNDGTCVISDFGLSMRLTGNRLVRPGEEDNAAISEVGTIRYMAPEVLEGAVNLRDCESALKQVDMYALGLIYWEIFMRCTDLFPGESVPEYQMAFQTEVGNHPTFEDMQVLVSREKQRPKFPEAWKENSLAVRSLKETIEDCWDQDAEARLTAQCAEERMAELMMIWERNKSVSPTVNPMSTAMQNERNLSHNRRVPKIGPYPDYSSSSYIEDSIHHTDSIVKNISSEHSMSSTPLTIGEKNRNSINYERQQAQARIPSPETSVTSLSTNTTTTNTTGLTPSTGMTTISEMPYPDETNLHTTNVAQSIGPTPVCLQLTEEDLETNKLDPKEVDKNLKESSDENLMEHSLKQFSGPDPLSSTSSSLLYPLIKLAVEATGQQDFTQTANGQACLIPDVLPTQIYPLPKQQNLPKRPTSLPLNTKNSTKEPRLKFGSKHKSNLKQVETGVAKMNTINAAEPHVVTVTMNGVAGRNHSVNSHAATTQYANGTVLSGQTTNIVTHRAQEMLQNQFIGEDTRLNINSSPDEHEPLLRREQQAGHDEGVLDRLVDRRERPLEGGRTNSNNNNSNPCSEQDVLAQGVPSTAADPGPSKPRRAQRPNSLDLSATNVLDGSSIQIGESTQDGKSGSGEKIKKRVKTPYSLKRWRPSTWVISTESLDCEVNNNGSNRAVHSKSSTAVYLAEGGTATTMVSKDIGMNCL

[5] = test system: Tyrosine-protein kinase ABL1 (Homo sapiens), P00519 [T315I]; conditions: Compound concentration 1000.0 nM
[6] = target: T3, Serine/threonine-protein kinase MAK (Homo sapiens) (UniProt P20794); conditions: Compound concentration 1000.0 nM
T3 sequence (whole entry): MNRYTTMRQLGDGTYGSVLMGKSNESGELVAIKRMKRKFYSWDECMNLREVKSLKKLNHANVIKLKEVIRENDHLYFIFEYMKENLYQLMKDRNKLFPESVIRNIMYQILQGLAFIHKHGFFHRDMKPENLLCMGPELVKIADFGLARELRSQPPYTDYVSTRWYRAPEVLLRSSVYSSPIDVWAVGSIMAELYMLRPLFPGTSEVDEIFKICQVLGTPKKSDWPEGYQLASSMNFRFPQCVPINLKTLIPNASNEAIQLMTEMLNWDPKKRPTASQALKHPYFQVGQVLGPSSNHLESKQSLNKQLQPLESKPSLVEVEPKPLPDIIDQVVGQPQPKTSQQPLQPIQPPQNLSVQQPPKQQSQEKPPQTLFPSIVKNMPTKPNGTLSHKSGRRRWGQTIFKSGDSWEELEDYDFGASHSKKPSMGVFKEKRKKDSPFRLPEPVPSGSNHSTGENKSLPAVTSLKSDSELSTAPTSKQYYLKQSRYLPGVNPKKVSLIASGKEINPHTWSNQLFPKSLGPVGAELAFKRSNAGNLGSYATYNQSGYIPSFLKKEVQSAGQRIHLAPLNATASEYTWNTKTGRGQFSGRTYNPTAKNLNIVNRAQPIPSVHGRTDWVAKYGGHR

[7] = target: Receptor-type tyrosine-protein kinase FLT3 (Homo sapiens) (UniProt P36888); conditions: Compound concentration 1000.0 nM
[8] = target: Ribosomal protein S6 kinase alpha-6 (Homo sapiens) (UniProt Q9UK32); conditions: Compound concentration 1000.0 nM
[9] = target: Mitogen-activated protein kinase kinase kinase kinase 5 (Homo sapiens) (UniProt Q9Y4K4); conditions: Compound concentration 1000.0 nM
[10] = target: 5-hydroxytryptamine receptor 1B (Homo sapiens) (UniProt P28222); conditions: Compound concentration 10.0 uM
SNU-449 = assay: Proliferation assay: SNU-449 (hepatocellular carcinoma); assay type: functional, cell-based; conditions: Homo sapiens

Chain of 5-hydroxytryptamine receptor 1B (Homo sapiens) (P28222 whole entry): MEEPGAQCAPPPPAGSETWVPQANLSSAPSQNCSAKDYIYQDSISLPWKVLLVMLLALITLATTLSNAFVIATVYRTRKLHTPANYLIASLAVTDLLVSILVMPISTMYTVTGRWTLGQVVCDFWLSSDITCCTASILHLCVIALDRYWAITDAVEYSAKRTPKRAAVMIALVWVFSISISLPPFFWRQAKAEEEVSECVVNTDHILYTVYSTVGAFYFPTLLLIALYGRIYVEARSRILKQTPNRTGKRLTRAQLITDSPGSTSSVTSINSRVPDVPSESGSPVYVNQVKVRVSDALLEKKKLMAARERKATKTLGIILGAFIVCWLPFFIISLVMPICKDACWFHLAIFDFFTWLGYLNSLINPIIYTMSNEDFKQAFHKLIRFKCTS
Chain of Mitogen-activated protein kinase kinase kinase kinase 5 (Homo sapiens) (Q9Y4K4 whole entry, looked up): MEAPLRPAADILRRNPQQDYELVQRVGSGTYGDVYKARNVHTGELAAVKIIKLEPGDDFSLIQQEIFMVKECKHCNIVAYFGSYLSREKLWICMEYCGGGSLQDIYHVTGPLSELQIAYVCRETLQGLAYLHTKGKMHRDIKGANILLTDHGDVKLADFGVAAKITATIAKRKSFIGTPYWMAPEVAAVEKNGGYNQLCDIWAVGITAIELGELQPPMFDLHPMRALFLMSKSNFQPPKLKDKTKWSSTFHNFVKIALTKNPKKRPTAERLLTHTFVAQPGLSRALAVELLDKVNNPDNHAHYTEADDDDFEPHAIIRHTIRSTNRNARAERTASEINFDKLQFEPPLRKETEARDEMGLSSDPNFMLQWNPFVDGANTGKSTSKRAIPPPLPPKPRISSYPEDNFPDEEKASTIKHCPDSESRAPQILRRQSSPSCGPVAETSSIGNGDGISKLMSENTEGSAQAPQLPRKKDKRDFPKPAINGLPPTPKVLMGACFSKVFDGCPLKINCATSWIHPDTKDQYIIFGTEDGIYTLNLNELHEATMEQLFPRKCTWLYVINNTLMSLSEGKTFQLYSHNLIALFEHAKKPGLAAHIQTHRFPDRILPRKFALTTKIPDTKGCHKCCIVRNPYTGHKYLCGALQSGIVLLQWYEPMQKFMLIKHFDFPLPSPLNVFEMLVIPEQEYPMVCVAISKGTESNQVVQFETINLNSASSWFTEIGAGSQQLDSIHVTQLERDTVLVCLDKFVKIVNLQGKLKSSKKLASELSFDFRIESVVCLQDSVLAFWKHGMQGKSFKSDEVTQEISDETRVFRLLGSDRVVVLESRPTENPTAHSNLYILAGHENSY
Chain of Ribosomal protein S6 kinase alpha-6 (Homo sapiens) (Q9UK32 whole entry): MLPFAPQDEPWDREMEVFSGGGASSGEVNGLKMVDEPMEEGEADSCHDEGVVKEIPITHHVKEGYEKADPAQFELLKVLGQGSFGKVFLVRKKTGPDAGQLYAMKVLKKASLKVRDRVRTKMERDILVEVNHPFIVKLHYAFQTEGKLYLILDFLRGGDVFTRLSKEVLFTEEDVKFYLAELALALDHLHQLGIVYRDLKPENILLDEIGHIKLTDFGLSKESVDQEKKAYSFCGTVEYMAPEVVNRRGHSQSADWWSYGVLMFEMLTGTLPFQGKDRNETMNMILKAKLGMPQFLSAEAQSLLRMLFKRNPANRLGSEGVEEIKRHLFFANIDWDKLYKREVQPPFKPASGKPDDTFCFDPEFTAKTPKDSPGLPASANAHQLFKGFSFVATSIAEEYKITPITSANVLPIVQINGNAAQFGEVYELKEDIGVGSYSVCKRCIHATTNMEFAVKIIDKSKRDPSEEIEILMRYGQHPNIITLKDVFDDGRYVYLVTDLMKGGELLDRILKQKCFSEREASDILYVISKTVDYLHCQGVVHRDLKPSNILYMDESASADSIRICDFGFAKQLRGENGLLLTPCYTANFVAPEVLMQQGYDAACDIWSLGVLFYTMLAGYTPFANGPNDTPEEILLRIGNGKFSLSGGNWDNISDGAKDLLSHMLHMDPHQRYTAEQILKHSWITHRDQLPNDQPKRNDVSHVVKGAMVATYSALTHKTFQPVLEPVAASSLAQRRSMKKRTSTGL
Chain of Atypical kinase COQ8B, mitochondrial (Homo sapiens) (Q96D53 whole entry): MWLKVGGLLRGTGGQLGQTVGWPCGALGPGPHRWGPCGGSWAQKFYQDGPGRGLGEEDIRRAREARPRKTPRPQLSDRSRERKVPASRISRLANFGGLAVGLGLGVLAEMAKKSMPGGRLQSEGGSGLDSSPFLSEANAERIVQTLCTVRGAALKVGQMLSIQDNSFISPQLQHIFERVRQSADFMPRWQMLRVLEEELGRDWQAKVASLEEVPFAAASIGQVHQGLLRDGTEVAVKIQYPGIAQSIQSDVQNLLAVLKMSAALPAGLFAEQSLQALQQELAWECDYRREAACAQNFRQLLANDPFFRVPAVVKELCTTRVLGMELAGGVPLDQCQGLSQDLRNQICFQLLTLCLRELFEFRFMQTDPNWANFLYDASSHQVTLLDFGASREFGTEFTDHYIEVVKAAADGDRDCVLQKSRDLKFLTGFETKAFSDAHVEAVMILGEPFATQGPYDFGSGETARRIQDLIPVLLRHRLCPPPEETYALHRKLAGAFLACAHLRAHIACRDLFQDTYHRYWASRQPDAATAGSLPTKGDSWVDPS
Chain of Receptor-type tyrosine-protein kinase FLT3 (Homo sapiens) (P36888 whole entry): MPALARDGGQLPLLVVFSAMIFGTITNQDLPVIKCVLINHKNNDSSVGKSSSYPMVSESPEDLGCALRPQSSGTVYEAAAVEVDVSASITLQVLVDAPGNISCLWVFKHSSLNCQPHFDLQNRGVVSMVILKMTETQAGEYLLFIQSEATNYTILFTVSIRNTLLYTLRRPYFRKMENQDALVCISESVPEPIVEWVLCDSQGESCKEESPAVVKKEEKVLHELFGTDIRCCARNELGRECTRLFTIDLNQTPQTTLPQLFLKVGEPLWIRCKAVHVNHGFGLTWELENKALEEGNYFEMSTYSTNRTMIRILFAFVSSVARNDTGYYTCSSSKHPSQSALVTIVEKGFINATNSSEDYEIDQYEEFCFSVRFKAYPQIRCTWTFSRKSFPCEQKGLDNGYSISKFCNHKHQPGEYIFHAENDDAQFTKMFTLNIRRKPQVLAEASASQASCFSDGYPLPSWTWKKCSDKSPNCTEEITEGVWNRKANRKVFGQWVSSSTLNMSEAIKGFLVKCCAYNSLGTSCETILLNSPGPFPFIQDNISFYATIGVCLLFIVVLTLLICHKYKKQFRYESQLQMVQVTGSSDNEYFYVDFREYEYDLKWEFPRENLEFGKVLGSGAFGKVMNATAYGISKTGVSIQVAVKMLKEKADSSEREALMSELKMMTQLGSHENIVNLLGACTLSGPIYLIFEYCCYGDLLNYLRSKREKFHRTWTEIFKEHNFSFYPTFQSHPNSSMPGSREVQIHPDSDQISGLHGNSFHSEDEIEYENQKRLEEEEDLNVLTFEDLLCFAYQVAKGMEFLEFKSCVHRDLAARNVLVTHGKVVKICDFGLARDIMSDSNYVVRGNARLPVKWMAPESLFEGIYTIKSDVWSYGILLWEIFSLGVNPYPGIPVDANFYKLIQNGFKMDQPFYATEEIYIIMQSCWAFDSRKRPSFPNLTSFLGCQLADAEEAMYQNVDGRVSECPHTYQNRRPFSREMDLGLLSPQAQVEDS
Chain of Phosphatidylinositol 4,5-bisphosphate 3-kinase catalytic subunit alpha isoform (Homo sapiens), P42336 [H1047L] (P42336 whole entry H1047L, canonical isoform): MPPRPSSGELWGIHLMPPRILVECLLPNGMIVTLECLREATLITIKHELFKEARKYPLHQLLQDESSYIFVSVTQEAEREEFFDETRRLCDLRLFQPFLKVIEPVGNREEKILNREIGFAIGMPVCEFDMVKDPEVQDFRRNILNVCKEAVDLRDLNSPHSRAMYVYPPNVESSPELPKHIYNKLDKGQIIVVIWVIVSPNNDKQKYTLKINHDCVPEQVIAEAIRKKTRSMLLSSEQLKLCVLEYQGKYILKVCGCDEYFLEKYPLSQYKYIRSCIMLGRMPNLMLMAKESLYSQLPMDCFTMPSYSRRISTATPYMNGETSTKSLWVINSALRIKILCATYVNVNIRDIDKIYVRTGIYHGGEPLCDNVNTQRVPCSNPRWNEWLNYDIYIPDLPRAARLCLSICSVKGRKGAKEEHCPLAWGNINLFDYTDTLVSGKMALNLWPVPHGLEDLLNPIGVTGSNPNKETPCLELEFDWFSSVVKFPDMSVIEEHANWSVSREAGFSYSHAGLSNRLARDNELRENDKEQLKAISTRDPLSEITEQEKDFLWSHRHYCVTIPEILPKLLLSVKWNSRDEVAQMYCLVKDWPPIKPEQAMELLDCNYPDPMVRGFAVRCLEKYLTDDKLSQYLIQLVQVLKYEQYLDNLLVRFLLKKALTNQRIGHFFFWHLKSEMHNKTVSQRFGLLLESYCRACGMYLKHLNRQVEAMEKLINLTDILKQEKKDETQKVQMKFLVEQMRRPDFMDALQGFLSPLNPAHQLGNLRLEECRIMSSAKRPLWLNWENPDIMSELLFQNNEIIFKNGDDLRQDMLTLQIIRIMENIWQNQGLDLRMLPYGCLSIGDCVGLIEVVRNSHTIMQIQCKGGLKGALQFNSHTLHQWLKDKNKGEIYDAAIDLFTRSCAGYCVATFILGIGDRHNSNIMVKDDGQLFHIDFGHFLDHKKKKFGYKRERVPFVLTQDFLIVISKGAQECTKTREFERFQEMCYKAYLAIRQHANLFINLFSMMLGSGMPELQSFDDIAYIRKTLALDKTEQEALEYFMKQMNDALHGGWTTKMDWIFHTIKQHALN

Compound	residual activity [1] [%]	residual activity [2] [%]	residual activity [3] [%]	residual activity [4] [%]	residual activity [5] [%]	residual activity [6] [%]	residual activity [7] [%]	residual activity [8] [%]	residual activity [9] [%]	inhibition [10] [%]	IC50 (SNU-449)
Cc1nc(C2CCN(C(=O)c3ccc(OC(F)(F)F)cc3N)CC2)c2ncc(N3CCN(C)CC3)cc2n1 [BAY-693]	100	87	93	100	100	99	83	100	100	14.6	19.5 µM (not active)
CN1CCN(c2cnc3c(C4CCN(C(=O)c5ccc(OC(F)(F)F)cc5N)CC4)ncnc3c2)CC1 [BAY-885]	100	100	100	100	100	100	100	100	99	14.9	> 30 µM (not active)
